Test results reported in patent US20160039897A1, “COMPOUNDS AND METHODS FOR TREATING OBESITY AND CONTROLLING WEIGHT” (THE UNIVERSITY OF NORTH CAROLINA AT CHAPEL HILL, priority 2013, published 2016).
Entries after “also recorded” stand apart in the source; their conditions may differ. No end group written: not given here. mPEG‑maleimide = methoxy-PEG maleimide (couples to the cysteine thiol)

Assays:
[1] = system: primary preadipocytes from IGFBP-2−/− mice; assay: Differentiation of primary preadipocytes (immunoblot of adiponectin, aP2, PPARγ; Oil Red O staining); format: cell-based, mouse; conditions: for effect on differentiation marker expression / preadipocyte differentiation (in words): peptides 6 μg/ml, IGFBP-2 proteins 3 μg/ml, IGF-I 100 ng/ml, in differentiation medium; for % suppression of adiponectin: mean±SE, N=3; for relative potency as inhibitor of adipogenesis / preadipocyte differentiation (in words): comparison between peptides and proteins, immunoblot and Oil Red O
Procedure: Primary preadipocytes were isolated from epididymal fat pads of 6 week old IGFBP-2^−/− mice. The cells were cultured using a previously described method (Boney, C M et al., 1994). The fat pads were weighed and the tissue was digested with an equal volume (W/V) of collagenase type A (Roche Applied Science, Indianapolis, Ind.) in HEPES buffer (0.1M and 1.5% BSA) for 45 min at 37° C. Following complete digestion, the preadipocytes were separated from the stromal vascular cells by centrifugation at 500×g for 5 min. The pelleted cells were washed with DMEM containing 30 mM glucose (Gibco, Grand Island, N.Y.) and passed through a 100 μm mesh filter (BD Biosciences, Bedford, Mass.). The cells were then plated in 6-well plates (Falcon Corp., Franklin Lakes, N.J.) at a density of 1.2-1.5×10^4 cells/ml in DMEM containing 30 mM glucose supplemented with penicillin (100 U/ml), streptomycin (100 μg/ml), and 10% fetal bovine serum hereafter referred to as standard medium. The cultures had the medium changed every 2 days until they reached confluency. Two day post-confluent cells were then exposed to differentiation medium (serum free DMEM containing 0.5 mM IBMX, 1 μM dexamethasone, and 5 μg/mL insulin) and incubated for 2 days. Experimental treatments that were added to this medium included either wild type IGFBP-2 (3 μg/ml), HBD1 peptide (6 μg/ml), HBD1 control peptide (6 μg/ml), HBD2 peptide (6 μg/ml), HBD2 control peptide (6 μg/ml), HBD1 mutant IGFBP-2 (3 μg/ml) or the HBD2 mutant IGFBP-2 (3 μg/ml). Cultures were maintained for two additional days in the standard medium supplemented with 5 μg/ml insulin. Thereafter, the cultures were kept in the fresh standard medium without insulin for additional two days.
After treatment, the cells were rinsed with PBS for two times and fixed with 10% formalin for 30 min at room temperature. After rinsing with distilled water for twice, 100% propylene glycol (Poly Scientific, Bay Shore, N.Y.) was added and incubated for 5 min. Before adding Oil Red O solution (Poly Scientific, Bay Shore, N.Y.), propylene glycol was removed. The cultures were incubated for 10 min at 60° C. Removing Oil Red O solution, the cultures were incubated with 80% propylene glycol for 5 min, After incubation, the cultures were rinsed with tap water twice. Images were captured using an Olympus IX81 inverted microscope.
Differentiated adipocytes were lysed in ice-cold lysis buffer (Xi et al., 2008). After centrifugation at 14,000×g for 10 min, solubilized proteins were quantified by the Bradford method (Thermo Scientific, Rockford, Ill.). Equal protein amounts of lysates were loaded onto a SDS-polyacrylamide gel and the proteins were separated, then transferred to an Immobilon filter and visualized by immunoblotting using the appropriate antibody. The primary antibody dilutions that were used were 1:1000 for the anti-adiponectin antibody (Affinity BioReagents, Golden, Colo.), 1:500 for the anti-PPARγ antibody (Cell Signaling Technology Inc., Beverly, Mass.), 1:2000 for the anti-apt antibody (ProSci Inc., Poway, Calif.) and 1:5000 for the anti-β-actin antibody (Sigma Chemical Company, St. Louis, Mo.). The immune complexes were visualized using enhanced chemiluminescence (Thermo Fischer Scientific, Rockford, Ill.).
Preadipocytes were prepared from mice and grown in culture as described herein. The respective mouse and human peptides were added to cells and the cells were lysed and the lysates were run on SDS gels as described. Immunoblotting for adiponectin was carried as described. Three concentrations of each peptide, 0.7, 2.0 and 6.0 μg/ml, were compared. The results were expressed as % suppression mean±SE(N=3) and were as follows.
Cell culture of primary preadipocytes. Preadipocytes were isolated from epididymal fat pads of IGFBP-2^−/− mice. The cultures had the medium changed every 2 days until they reached confluency. […]

[2] = system: ovariectomized C57B6 normal mice (IGFBP-2 +/+); assay: Body composition MRI analysis in ovariectomized genetically normal mice; format: in vivo, mouse; conditions: for Fat / Body weight: 2.5 mg/kg
Procedure: Experiments were conducted in which the HBD-2 peptide was administered to genetically normal, ovariectomized mice to determine if it would induce fat loss. The purpose of this experiment was to determine if the peptide could alter fat mass in ovariectomized mice. Estrogen deficient mice are known to gain fat mass following removal of the ovaries. Since the peptide had not been tested in an animal model that had not been genetically manipulated and since it had not been tested in a condition wherein fat mass had been acquired previously to determine if it could reduce pre-existing fat mass this experiment was undertaken. The experimental design was as follows.
(§1) There were 8 mice in each treatment group. C57B6 normal mice underwent ovaryectomy at age 8 weeks. They were then maintained on a normal Chow diet (6% fat) for three weeks. At that time they were treated with 2.5 mg/kg of the active peptide injected subcutaneously two days per week for four weeks. The peptide is the pegylated HBD-2 peptide described herein,
(§2) A second treatment group that had also undergone ovariectomy was treated with the identical concentration of a control peptide that contained the same amino acids but in a scrambled order. A third group underwent sham surgery wherein an incision was made and then closed and the ovaries were not removed. For comparison the response of mice that had had the IGF BP-2 gene deleted were treated in the same manner.
(§3) Eight mice underwent and were treated with the active peptide for four weeks as described for the normal animals. Eight additional mice received the control peptide and eight mice received the sham procedure. The animals were weighed weekly. After 4 weeks they underwent MRI analysis to determine body composition. Both lean mass and fat mass were quantified and the percent fat as a percent total body weight was determined mathematically.

[3] = system: IGFBP-2−/− mice; assay: Inguinal and visceral fat pad, liver and heart weights at sacrifice; format: in vivo, mouse; conditions: after 12 weeks; pegylated peptide 50 μg IP 3 times/week; mean±SE
Procedure: (§4) Body fat and lean muscle mass was measured at weeks 0 and 12 of treatment by magnetic resonance imaging analysis (EchoMRI-100, Echo Medical Systems, Houston, Tex.), a technique that measures fat mass and lean mass in unanesthetized animals (Kelly S A, et. al., 2010). After completion of 12 weeks of treatment, the mice were sacrificed. Blood was collected by cardiac puncture and allowed to sit for 4 hours before centrifuging at 3500 rpm×15 min. The serum was aspirated and stored at −20° C. until analysis. Abdominal inguinal and visceral fat pads were carefully dissected from each animal according to defined anatomical landmarks. All subcutaneous fat between the lower part of the rib cage and the upper thigh was considered abdominal subcutaneous inguinal fat, whereas all fat found along the mesentery starting at the lesser curvature of the stomach and ending at the sigmoid colon was considered visceral fat. Fat depots were blotted dry prior to weighing. The right inguinal fat pad was dissected separately and the triglyceride content of this tissue was determined by a colorimetric analysis (Pointe Scientific, Canton, Mich.), as previously described (Dann H, Kimura S 1992). Serum adiponectin and leptin were measured by ELISA following manufacturer's instructions (Millipore, Billerica, Mass.).
(§5) Body composition and serum adipokine measurement. Body fat and lean mass were measured at weeks 0 and 12 of treatment by magnetic resonance imaging analysis (EchoMRI-100, Echo Medical Systems, Houston, Tex.), using unanesthetized animals. After 12 weeks of treatment, the mice were sacrificed and blood was collected by cardiac puncture and centrifuged at 3500 rpm×15 min. The serum was stored at −20° C. Abdominal inguinal and visceral fat pads were dissected from each animal according to defined anatomical landmarks. Subcutaneous fat between the rib cage and the upper thigh was termed subcutaneous inguinal fat, whereas all fat from the lesser curvature of the stomach to the sigmoid colon was termed visceral fat. Fat depots were blotted dry prior to weighing. The right inguinal fat pad was dissected separately and the triglyceride content of this tissue was determined by a calorimetric analysis (Pointe Scientific, Canton, Mich. Serum adiponectin and leptin were measured by ELISA following manufacturer's instructions (Millipore, Billerica, Mass.).

[4] = system: ovariectomized IGFBP-2 −/− mice; assay: Body composition MRI analysis in ovariectomized IGFBP-2 knockout mice; format: in vivo, mouse; conditions: IGFBP-2 −/− OVX mice, 2.5 mg/kg sc two days per week for four weeks; for Fat: 2.5 mg/kg
Procedure: as §1, §2, §3

[5] = system: IGFBP-2−/− mice; assay: Body composition (fat and lean mass) by EchoMRI at weeks 0 and 12; format: in vivo, mouse; conditions: weeks 0 to 12; pegylated peptide 50 μg IP 3 times/week; mean±SE
Procedure: as §4, §5

[6] = IGFBP-2 +/+ OVX mice, 2.5 mg/kg sc two days per week for four weeks, MRI

In the case of “CKPLRLSKEEHPLK [HBD1 control peptide, scrambled HBD1 peptide, reference compound]”, the “effect on differentiation marker expression / preadipocyte differentiation (in words)” value [1] is reported as “had no effect”.

“RKGFYKRKQCKPSRGRKR [HBD2 control peptide, reference compound]” was tested, and the “effect on differentiation marker expression / preadipocyte differentiation (in words)” value [1] was “did not affect their expression; also recorded: did not alter their expression”.

In the case of “KHGRYNLKQCKMSLNGQR [Mouse, mouse IGFBP-2 HBD2 peptide]”, the “% suppression of adiponectin” value ([1]; 0.7 μg/ml peptide) is reported as 51.2 ± 8.1%, the “% suppression of adiponectin” value ([1]; 2.0 μg/ml peptide) is reported as 85.6 ± 11.4% and the “% suppression of adiponectin” value ([1]; 6.0 μg/ml peptide) is reported as 95.5 ± 9.9%. For the same molecule, the “relative potency as inhibitor of adipogenesis / preadipocyte differentiation (in words)” value [1] was “equipotent”.

“Peg HBD2: HBD2 peptide with added cysteine (CKHGLYNLKQCKMSLNGQR), pegylated with methoxy PEG maleimide (C(mPEG‑maleimide)KHGLYNLKQCKMSLNGQR)” gave a Fat % [2, 6] of 19.42 ± 1.1%, a Lean [2, 6] of 17.40 ± 0.3 g and a Total [2, 6] of 21.65 ± 0.6 g. It also gave a Fat ([2]; IGFBP-2 +/+ OVX mice, 2.5 mg/kg sc two days per week for four weeks, MRI, listed as HBD) of 4.0 ± 0.4 g, a Fat ([2]; IGFBP-2 +/+ OVX mice, 2.5 mg/kg sc two days per week for four weeks, MRI, listed as active peptide) of 4.0 g and a Body weight ([2]; IGFBP-2 +/+ OVX mice, 2.5 mg/kg sc two days per week for four weeks, listed as HBD) of 23.0 ± 0.8 g. For the same molecule, the Body weight ([2]; IGFBP-2 +/+ OVX mice, 2.5 mg/kg sc two days per week for four weeks, listed as active peptide) was 23.0 g, the “body weight and total fat mass (in words)” value ([2]; OVX mice, after four weeks of treatment) was “significantly decreased” and the Inguinal fat [3] was 0.23 ± 0.02 g. The Visceral fat [3] was 0.25 ± 0.02 g, the Body weight [4] was 21.95 ± 0.8 g and the Fat % ([4]; MRI) was 18.75 ± 1.0%. For the same molecule, the Lean ([4]; MRI) was 16.97 ± 0.4 g, the Total ([4]; MRI) was 20.90 ± 0.8 g and the Fat ([4]; MRI) was 3.85 g. The Fat ([4]; MRI, listed as HBD(pept)) was 3.85 ± 0.4 g, the Fat mass increase [5] was 0.58 ± 0.12 g and the Lean mass increase [5] was 3.10 ± 0.57 g.

“IGF-I: insulin-like growth factor-I added at 100 ng/ml to differentiation medium [reference compound]” was tested, and the “effect on differentiation marker expression / preadipocyte differentiation (in words)” value [1] was “no additional effect on cell differentiation”.

B1: native IGFBP-2: native (wild type) insulin-like growth factor binding protein-2; FIG. 2 legend says wild type bovine IGFBP-2 (protein, UniProt P13384 34-317, looked up)
Insulin-like growth …: EVLFRCPPCTPESLAACKPPPGAAAGPAGDARVPCELVREPGCGCCSVCARLEGERCGVYTPRCGQGLRCYPNPGSELPLRALVHGEGTCEKHGDAEYSASPEQVADNGEEHSEGGLVENHVDGNVNLMGGGGGAGRKPLKSGMKELAVFREKVTEQHRQMGKGGKHHLGLEEPKKLRPPPARTPCQQELDQVLERISTMRLPDERGPLEHLYSLHIPNCDKHGLYNLKQCKMSLNGQRGECWCVNPNTGKLIQGAPTIRGDPECHLFYNEQQGARGVHTQRMQ
With B1 the “relative potency as inhibitor of adipogenesis / preadipocyte differentiation (in words)” value [1] was “most potent inhibitors of adipogenesis” and the “effect on differentiation marker expression / preadipocyte differentiation (in words)” value [1] was “inhibited preadipocyte differentiation into mature adipocytes”.
